{
  "source": "paper PMC11413503",
  "about": "“SCR‐7952, a highly selective MAT2A inhibitor, demonstrates synergistic antitumor activities in combination with the S‐adenosylmethionine‐competitive or the methylthioadenosine‐cooperative protein arginine methyltransferase 5 inhibitors in methylthioadenosine phosphorylase‐deleted tumors” (MedComm, 2024)",
  "key": {"MAT2A [1]": {"molecular_target": "T1, MAT2A (Homo sapiens, UniProt P31153)", "T1 construct": "purchased Pharmaron 210405‐HWR‐20210429", "T1 sequence (P31153 whole entry)": "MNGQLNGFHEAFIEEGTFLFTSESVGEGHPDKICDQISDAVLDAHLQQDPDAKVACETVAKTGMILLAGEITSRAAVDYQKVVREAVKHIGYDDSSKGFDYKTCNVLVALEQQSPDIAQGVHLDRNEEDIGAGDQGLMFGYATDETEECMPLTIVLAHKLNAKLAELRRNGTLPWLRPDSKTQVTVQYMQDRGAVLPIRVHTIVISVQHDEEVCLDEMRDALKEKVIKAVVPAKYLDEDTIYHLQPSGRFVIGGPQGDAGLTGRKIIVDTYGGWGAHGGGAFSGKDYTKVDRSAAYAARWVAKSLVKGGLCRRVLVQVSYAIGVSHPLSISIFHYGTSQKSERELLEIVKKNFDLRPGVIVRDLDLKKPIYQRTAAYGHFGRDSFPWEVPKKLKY", "assay": "MAT2A enzymatic activity, biochemical assay (phosphate release)", "protocol": "The test compound was prepared in dimethyl sulfoxide (DMSO). […] Then, 40 µL of enzyme dilution was added and the mixture was incubated for 120 min at room temperature. The enzymatic assay was initiated by adding 40 µL of substrate mix (a final dose of 400 µM ATP and a final dose of 200 µM L‐methionine in assay buffer), and the mixture was incubated for a further 90 min at room temperature. The liberated phosphate released by the enzyme in stoichiometric amounts by the production of SAM was measured using the Phosphate Assay Kit—PiColorLock™ (Abcam, UK). Velocity curves were fit to the standard Michaelis‐Menten equation to yield V max and K m."}, "MAT2A [2]": {"molecular_target": "T1, MAT2A", "assay": "SPR binding, single-cycle kinetics", "protocol": "SPR experiments were performed using a BIAcore 8K instrument (Cytiva) at 25°C. A series S sensor chip SA (Cytiva) was docked into the system in 20 mM Bicine‐Na, pH 7.5, 100 mM KCl, 5 mM MgCl2, 0.1 mM TCEP, 0.05% (w/w) Tween‐20, and 2% (v/v) DMSO. The MAT2A protein was captured by Penta‐anti‐His antibody, and the affinity of SCR‐7952 was tested over a suitable dose–response range (12.5–200 nM) by single‐cycle kinetics. The kinetic parameters of SCR‐7952 on MAT2A were fitted via a 1:1 binding model."}, "[3]": {"tested_on": "HCT116 MTAP−/− subcutaneous xenograft", "assay": "Xenograft efficacy study, monotherapy", "assay_type": "in vivo, mice", "protocol": "An efficacy study in an HCT116 MTAP ^−/− subcutaneous xenograft mouse model was performed to evaluate the antitumor effect of SCR‐7952, with once daily (q.d.) oral dosing of 0.25, 0.5, 1.0, or 3.0 mg/kg, respectively.\nNu/Nu female mice (6–12 weeks old; Beijing Vital River Laboratory Animal Technology Co., Ltd.) were used for in vivo xenograft studies. All experimental procedures involving animals and their care were in accordance with the State Council Regulations for Laboratory Animal Management (Enacted in 1988) and approved by the Institutional Animal Care and Use Committee of Jiangsu Simcere Pharmaceutical Co., Ltd. (IACUC; Approval No. AP‐056).\n(§1) Subcutaneous injections of HCT116 MTAP ^−/− cells were performed (5 × 10^6 cells in 100 µL) into Nu/Nu female mice. Mice were observed daily for the development of tumors. Six days after tumor implantation, mice were randomly distributed into different groups. SCR‐7952, AG‐270, JNJ‐64619178, or vehicle (water with 5% N‐methylpyrrolidone and 10% solutol HS‐15) were daily administrated by oral gavage. Tumor volumes and body weights were recorded three times per week. Tumor volumes were measured in two dimensions using a caliper, and the volume was expressed in mm^3 using the formula: V = (L × W × W)/2, where V is tumor volume, L is tumor length (the longest tumor dimension), and W is tumor width (perpendicular to L). The tumor growth inhibition rate (TGI%) of each dosing group was calculated according to the following formula: %TGI = (1 − (V t(treatment group) − V 0(treatment group))/(V t(vehicle group) − V 0(vehicle group))) × 100%, where V t is average tumor volume of a dosing group on a specific day, V 0 is average tumor volume of a dosing group on the initial day. At the end of the study, plasma and tumor tissues were collected and stored at −80°C for further measurement."}, "FANCA": {"tested_on": "FANCA", "assay": "RT-PCR of FANCA and DI-containing transcripts", "assay_type": "cell-based", "settings": "72 h"}, "HCT116 MTAP−/− xenograft": {"tested_on": "HCT116 MTAP−/− xenograft", "assay": "Xenograft combination treatment study", "assay_type": "in vivo, mice", "settings": "SCR-7952 0.3 mg/kg alone", "protocol": "as §1"}, "EDNRA": {"molecular_target": "EDNRA (Homo sapiens, UniProt P25101)", "sequence (P25101 21-427, species assumed)": "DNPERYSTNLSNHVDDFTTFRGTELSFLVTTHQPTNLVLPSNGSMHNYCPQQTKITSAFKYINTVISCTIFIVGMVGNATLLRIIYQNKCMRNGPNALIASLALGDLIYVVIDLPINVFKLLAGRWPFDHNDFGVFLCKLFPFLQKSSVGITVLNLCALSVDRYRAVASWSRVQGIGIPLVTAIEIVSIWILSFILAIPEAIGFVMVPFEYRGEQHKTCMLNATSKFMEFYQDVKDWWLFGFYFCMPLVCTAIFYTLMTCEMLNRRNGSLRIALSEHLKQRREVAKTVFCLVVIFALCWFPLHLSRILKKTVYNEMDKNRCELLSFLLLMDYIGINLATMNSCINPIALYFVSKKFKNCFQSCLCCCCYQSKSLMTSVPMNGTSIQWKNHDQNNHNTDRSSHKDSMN", "assay": "Mini-profiling panel, GPCR", "assay_type": "cell-based", "settings": "GPCR Targets"}, "HRH2": {"molecular_target": "HRH2 (Homo sapiens, UniProt P25021)", "sequence (P25021 whole entry, species assumed)": "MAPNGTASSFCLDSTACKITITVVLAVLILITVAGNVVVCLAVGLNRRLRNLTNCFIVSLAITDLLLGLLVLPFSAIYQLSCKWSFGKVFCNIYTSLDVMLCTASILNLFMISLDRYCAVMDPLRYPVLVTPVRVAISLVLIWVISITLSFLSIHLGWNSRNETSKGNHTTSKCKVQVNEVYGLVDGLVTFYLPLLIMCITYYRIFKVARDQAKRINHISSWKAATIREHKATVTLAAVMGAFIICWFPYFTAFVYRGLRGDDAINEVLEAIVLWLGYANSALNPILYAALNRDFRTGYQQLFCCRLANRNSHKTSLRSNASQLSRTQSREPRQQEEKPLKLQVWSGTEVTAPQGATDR", "assay": "Mini-profiling panel, GPCR", "assay_type": "cell-based", "settings": "GPCR Targets"}, "hERG": {"molecular_target": "hERG (Homo sapiens, UniProt Q12809)", "assay": "Mini-profiling panel, ion channel", "assay_type": "cell-based", "settings": "Ion Channels; read-out: hERG Blocker IC50"}, "HTR3A": {"molecular_target": "HTR3A (Homo sapiens, UniProt P46098)", "sequence (P46098 24-478, species assumed)": "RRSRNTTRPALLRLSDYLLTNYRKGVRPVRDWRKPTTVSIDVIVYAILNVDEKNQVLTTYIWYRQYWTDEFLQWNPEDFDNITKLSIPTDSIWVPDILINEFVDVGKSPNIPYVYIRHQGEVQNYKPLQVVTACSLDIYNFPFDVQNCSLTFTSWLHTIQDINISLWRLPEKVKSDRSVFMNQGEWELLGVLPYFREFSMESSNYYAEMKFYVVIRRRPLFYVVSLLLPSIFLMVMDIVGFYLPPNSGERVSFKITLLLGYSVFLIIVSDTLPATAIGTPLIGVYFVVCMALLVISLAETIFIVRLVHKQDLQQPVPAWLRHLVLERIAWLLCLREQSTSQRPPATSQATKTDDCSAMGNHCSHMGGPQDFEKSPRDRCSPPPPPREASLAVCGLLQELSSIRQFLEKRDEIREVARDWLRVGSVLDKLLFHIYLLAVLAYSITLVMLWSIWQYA", "assay": "Mini-profiling panel, ion channel", "assay_type": "cell-based", "protocol": "(§2) Further insight into selectivity was evaluated in a functional panel of 47 representative targets closely related to human life activities, including G protein‐coupled receptors, transporters, ion channels, kinases, nuclear hormone receptor targets, and nonkinase enzymes (Table S3)."}, "KvLQT1/mink": {"molecular_target": "KvLQT1/mink (Homo sapiens, UniProt P51787)", "sequence (P51787 whole entry)": "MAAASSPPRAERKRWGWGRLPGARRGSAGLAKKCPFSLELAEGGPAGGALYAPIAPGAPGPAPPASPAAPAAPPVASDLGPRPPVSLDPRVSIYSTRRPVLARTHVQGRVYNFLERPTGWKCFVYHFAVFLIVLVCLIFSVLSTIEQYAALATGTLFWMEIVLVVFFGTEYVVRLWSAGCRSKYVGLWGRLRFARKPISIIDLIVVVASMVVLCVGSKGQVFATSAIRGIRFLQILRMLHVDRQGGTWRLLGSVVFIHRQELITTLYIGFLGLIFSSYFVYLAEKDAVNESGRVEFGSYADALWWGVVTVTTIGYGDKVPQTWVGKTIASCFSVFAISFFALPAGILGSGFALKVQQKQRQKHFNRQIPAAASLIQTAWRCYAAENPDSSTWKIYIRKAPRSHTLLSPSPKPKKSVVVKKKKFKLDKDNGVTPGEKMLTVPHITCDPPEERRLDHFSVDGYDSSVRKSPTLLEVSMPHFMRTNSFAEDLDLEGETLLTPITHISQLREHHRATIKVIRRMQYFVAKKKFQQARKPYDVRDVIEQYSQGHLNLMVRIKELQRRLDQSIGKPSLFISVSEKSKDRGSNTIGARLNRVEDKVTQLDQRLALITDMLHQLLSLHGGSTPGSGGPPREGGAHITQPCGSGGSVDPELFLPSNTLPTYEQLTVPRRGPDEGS", "assay": "Mini-profiling panel, ion channel", "assay_type": "cell-based", "protocol": "as §2"}, "NAV1.5": {"molecular_target": "NAV1.5 (Homo sapiens, UniProt Q14524)", "assay": "Mini-profiling panel, ion channel", "assay_type": "cell-based", "protocol": "as §2"}, "NMDAR (1A/2B)": {"molecular_target": "NMDAR (1A/2B) (Homo sapiens, UniProt Q05586+Q13224)", "sequence (Q13224 27-1484, other chains not shown)": "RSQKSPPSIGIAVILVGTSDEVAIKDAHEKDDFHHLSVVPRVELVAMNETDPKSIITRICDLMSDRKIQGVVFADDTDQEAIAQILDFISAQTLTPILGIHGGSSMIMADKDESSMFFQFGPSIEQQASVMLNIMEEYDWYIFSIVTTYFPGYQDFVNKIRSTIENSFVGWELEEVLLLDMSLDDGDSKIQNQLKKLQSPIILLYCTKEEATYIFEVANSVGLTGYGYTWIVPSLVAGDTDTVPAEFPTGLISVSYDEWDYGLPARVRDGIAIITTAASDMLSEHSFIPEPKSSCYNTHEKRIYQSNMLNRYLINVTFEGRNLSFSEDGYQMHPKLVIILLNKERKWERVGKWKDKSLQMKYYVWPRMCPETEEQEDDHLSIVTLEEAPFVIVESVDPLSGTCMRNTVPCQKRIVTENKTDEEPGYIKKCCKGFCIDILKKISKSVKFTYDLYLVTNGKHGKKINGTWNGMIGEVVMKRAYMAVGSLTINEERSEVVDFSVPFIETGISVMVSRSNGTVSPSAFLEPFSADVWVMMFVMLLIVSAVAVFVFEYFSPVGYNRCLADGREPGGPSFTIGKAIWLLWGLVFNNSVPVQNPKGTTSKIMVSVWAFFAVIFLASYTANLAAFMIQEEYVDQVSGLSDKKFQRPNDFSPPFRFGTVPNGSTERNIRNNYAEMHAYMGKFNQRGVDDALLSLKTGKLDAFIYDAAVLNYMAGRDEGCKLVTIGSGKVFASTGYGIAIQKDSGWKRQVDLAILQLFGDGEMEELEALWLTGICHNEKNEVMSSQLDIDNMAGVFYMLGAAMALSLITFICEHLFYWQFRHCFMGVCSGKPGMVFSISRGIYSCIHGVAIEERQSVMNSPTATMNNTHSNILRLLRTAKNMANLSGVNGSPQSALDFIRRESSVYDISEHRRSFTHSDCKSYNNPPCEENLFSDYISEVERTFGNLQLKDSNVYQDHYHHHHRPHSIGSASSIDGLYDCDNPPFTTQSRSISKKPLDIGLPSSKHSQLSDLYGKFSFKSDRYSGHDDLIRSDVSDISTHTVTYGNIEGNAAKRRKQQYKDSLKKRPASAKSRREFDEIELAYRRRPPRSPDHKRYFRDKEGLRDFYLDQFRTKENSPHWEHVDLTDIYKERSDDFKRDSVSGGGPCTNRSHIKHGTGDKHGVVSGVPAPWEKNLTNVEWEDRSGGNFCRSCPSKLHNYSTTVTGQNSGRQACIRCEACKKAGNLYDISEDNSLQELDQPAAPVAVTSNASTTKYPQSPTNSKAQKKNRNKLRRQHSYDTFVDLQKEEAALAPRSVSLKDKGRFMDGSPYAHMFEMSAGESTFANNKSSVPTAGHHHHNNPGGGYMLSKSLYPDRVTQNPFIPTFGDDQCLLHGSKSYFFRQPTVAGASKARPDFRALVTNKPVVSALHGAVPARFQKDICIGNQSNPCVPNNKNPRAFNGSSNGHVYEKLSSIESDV", "assay": "Mini-profiling panel, ion channel", "assay_type": "cell-based", "protocol": "as §2"}, "nAChR(a4/b2)": {"molecular_target": "nAChR(a4/b2) (Homo sapiens, UniProt P17787+P43681)", "sequence (P43681 29-627 limits assumed)": "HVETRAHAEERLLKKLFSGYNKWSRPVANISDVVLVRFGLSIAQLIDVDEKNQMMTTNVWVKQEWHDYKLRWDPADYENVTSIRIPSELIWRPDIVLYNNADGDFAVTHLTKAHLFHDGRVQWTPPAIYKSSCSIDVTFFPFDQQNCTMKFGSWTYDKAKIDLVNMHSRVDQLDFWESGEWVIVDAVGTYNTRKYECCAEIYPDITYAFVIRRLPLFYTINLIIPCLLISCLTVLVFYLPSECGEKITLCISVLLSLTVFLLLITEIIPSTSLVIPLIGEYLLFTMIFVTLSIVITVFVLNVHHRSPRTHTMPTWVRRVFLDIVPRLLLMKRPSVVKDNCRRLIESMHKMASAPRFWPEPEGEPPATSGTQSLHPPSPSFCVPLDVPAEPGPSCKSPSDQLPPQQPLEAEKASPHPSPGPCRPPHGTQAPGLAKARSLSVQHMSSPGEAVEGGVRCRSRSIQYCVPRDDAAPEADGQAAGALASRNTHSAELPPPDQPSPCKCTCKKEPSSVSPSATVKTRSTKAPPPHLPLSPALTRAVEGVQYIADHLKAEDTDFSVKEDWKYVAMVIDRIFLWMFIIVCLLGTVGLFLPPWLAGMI", "sequence (P17787 26-502)": "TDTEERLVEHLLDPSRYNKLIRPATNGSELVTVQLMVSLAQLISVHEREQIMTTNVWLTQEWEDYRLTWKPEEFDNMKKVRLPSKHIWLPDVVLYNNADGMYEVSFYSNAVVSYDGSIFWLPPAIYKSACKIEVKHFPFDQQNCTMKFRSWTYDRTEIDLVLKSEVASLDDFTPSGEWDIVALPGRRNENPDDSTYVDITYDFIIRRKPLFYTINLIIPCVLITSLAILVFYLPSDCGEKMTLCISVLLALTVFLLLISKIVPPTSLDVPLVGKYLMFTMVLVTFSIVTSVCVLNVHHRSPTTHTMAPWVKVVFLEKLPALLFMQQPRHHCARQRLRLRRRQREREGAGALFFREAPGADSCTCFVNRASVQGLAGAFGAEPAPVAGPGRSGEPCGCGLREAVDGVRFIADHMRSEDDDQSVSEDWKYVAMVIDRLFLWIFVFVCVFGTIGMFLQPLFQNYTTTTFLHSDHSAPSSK", "assay": "Mini-profiling panel, ion channel", "assay_type": "cell-based", "protocol": "as §2"}, "LCK": {"molecular_target": "LCK (Homo sapiens, UniProt P06239)", "assay": "Mini-profiling panel, kinase", "assay_type": "biochemical", "settings": "Kinases; read-out: LCK Inhibitor IC50"}, "ROCK1": {"molecular_target": "ROCK1 (Homo sapiens, UniProt Q13464)", "assay": "Mini-profiling panel, kinase", "assay_type": "biochemical", "settings": "Kinases; read-out: ROCK1 Inhibitor IC50"}, "VEGFR2": {"molecular_target": "VEGFR2 (Homo sapiens, UniProt P35968)", "assay": "Mini-profiling panel, kinase", "assay_type": "biochemical", "settings": "Kinases; read-out: VEGFR2 Inhibitor IC50"}, "COX1": {"molecular_target": "COX1 (Homo sapiens, UniProt P23219)", "assay": "Mini-profiling panel, non-kinase enzyme", "assay_type": "biochemical", "settings": "Non-Kinase Enzymes; read-out: COX1 Inhibitor IC50"}, "MAOA": {"molecular_target": "MAOA (Homo sapiens, UniProt P21397)", "assay": "Mini-profiling panel, non-kinase enzyme", "assay_type": "biochemical", "settings": "Non-Kinase Enzymes; read-out: MAOA Inhibitor IC50"}},
  "data": [
    {"smiles": "Cn1cnc2c(=O)n(-c3cccnc3C3CC3)c3cc(Cl)ccc3c21", "note": "[SCR‐7952, 7‐chloro‐5‐(2‐cyclopropylpyridin‐3‐yl)‐1‐methyl‐1,5‐dihydro‐4H‐imidazo[4,5‐c]quinolin‐4‐one]", "values": [
      {"measurement": "fold more potent than AG-270 on MAT2A enzymatic activity", "setting": "MAT2A [1]", "result": 3.7, "unit": "fold"},
      {"measurement": "IC50", "setting": "MAT2A [1]; biochemical assay, read-out: IC50, MAT2A enzyme", "result": 0.0187, "unit": "µM"},
      {"measurement": "Ki", "setting": "MAT2A [1]; in the presence of substrate methionine, Michaelis–Menten approach", "result": 0.0145, "unit": "µM"},
      {"measurement": "α value", "setting": "MAT2A [1]; noncompetitive inhibition for methionine", "result": 1.193},
      {"measurement": "Kd", "setting": "MAT2A [2]; read-out: dissociation equilibrium constant KD", "result": 0.00056, "unit": "µM"},
      {"measurement": "kon", "setting": "MAT2A [2]; single-cycle kinetic model, read-out: association rate constant ka", "result": 86700, "unit": "M⁻¹ s⁻¹"},
      {"measurement": "koff", "setting": "MAT2A [2]; single-cycle kinetic model, read-out: dissociation rate constant kd", "result": "4.83e-05", "unit": "s⁻¹"},
      {"measurement": "TGI", "setting": "[3]; SCR-7952 0.5 mg/kg oral q.d.", "result": 60.0, "unit": "%"},
      {"measurement": "TGI", "setting": "[3]; SCR-7952 1 mg/kg oral q.d.", "result": 62.7, "unit": "%"},
      {"measurement": "TGI", "setting": "[3]; SCR-7952 3.0 mg/kg oral q.d.", "result": 82.9, "unit": "%"},
      {"measurement": "expression of FANCA DI-containing transcripts", "setting": "FANCA", "result": "significantly upregulated"},
      {"measurement": "total levels of FANCA mRNA", "setting": "FANCA", "result": "reduced"},
      {"measurement": "TGI", "setting": "HCT116 MTAP−/− xenograft", "result": 55.0, "unit": "%"},
      {"measurement": "EC50", "setting": "EDNRA; read-out: EDNRA Agonism EC50", "result": "> 10", "unit": "µM"},
      {"measurement": "IC50", "setting": "EDNRA; read-out: EDNRA Antagonism IC50", "result": "> 10", "unit": "µM"},
      {"measurement": "EC50", "setting": "HRH2; read-out: HRH2 Agonism EC50", "result": "> 10", "unit": "µM"},
      {"measurement": "IC50", "setting": "HRH2; read-out: HRH2 Antagonism IC50", "result": "> 10", "unit": "µM"},
      {"measurement": "IC50", "setting": "hERG", "result": "> 10", "unit": "µM"},
      {"measurement": "EC50", "setting": "HTR3A", "result": "> 10", "unit": "µM"},
      {"measurement": "IC50", "setting": "HTR3A", "result": "> 10", "unit": "µM"},
      {"measurement": "EC50", "setting": "KvLQT1/mink", "result": "> 10", "unit": "µM"},
      {"measurement": "IC50", "setting": "KvLQT1/mink", "result": "> 10", "unit": "µM"},
      {"measurement": "IC50", "setting": "NAV1.5", "result": "> 10", "unit": "µM"},
      {"measurement": "EC50", "setting": "NMDAR (1A/2B)", "result": "> 10", "unit": "µM"},
      {"measurement": "IC50", "setting": "NMDAR (1A/2B)", "result": "> 10", "unit": "µM"},
      {"measurement": "EC50", "setting": "nAChR(a4/b2)", "result": "> 10", "unit": "µM"},
      {"measurement": "IC50", "setting": "nAChR(a4/b2)", "result": "> 10", "unit": "µM"},
      {"measurement": "IC50", "setting": "LCK", "result": "> 10", "unit": "µM"},
      {"measurement": "IC50", "setting": "ROCK1", "result": "> 10", "unit": "µM"},
      {"measurement": "IC50", "setting": "VEGFR2", "result": "> 10", "unit": "µM"},
      {"measurement": "IC50", "setting": "COX1", "result": "> 10", "unit": "µM"},
      {"measurement": "IC50", "setting": "MAOA", "result": "> 10", "unit": "µM"}
    ]}
  ]
}
